Experiments:
Type in all cases: biochemical
[1] = target: T1, PPK2^s.e (Staphylococcus epidermidis, UniProt Q5HL47); assay: polyphosphate kinase assay, HPLC; conditions: polyP6, Mg2+, pH 7.5, 35 °C
T1 construct: gene SERP2140
T1 sequence (Q5HL47 1-474): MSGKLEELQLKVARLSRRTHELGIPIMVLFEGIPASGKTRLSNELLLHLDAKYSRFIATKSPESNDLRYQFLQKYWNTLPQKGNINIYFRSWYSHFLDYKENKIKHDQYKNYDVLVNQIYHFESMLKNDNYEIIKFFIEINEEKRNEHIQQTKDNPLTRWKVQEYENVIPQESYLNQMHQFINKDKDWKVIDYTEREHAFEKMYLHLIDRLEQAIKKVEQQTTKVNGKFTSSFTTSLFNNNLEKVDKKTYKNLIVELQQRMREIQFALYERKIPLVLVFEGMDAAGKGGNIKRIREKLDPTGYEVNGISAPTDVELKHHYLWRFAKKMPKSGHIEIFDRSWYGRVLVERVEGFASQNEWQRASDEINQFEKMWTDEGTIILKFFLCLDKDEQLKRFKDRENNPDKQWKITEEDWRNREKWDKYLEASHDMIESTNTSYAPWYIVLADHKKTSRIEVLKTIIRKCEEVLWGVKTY

[2] = target: T2, PPK2A^p.a (Pseudomonas aeruginosa, UniProt Q9I6Z1); assay: polyphosphate kinase assay, HPLC; conditions: polyP6, Mg2+, pH 7.5, 35 °C
T2 construct: gene ppk2
T2 sequence (Q9I6Z1 2-357): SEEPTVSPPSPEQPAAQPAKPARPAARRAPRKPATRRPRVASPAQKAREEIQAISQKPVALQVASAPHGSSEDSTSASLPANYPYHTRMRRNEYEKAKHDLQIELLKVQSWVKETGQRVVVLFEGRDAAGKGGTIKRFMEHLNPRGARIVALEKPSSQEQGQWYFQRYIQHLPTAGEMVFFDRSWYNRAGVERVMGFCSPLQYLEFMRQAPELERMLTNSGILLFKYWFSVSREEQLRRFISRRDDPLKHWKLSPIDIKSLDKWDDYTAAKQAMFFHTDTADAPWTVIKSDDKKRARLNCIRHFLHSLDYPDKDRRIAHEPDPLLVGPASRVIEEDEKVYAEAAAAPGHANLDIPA

[3] = target: T3, PPK2C^p.a (Pseudomonas aeruginosa, UniProt Q9HYF1); assay: polyphosphate kinase assay, HPLC; conditions: polyP6, Mg2+, pH 7.5, 35 °C
T3 construct: gene PA3455
T3 sequence (Q9HYF1 1-496): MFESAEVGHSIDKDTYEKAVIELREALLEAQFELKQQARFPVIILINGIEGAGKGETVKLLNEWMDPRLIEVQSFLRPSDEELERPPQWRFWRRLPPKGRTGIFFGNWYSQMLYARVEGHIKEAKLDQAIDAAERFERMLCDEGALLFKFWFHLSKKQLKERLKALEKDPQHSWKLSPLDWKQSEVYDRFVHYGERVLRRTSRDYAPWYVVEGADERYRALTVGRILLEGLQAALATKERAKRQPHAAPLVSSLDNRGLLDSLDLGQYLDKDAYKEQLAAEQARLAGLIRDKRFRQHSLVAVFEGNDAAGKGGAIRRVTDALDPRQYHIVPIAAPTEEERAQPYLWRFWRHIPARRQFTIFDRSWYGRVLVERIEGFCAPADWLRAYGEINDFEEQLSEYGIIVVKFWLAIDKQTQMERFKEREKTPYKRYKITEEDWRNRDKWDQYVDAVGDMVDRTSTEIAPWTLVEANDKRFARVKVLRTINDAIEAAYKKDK

[4] = target: T4, PPK2B^p.a (Pseudomonas aeruginosa, UniProt Q9I154); assay: polyphosphate kinase assay, HPLC; conditions: polyP6, Mg2+, pH 7.5, 35 °C
T4 construct: gene PA2428
T4 sequence (Q9I154 1-304): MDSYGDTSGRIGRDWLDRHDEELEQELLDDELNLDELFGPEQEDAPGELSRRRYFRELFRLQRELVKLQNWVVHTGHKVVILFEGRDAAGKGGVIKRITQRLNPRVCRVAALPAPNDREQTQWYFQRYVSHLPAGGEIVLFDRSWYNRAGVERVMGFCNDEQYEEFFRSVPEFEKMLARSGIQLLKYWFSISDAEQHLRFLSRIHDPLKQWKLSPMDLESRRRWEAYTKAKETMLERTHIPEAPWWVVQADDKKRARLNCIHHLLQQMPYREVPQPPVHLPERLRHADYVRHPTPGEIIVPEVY

[5] = target: T5, PPK2^d.r (Meiothermus ruber, UniProt M9XB82); assay: polyphosphate kinase assay, HPLC; conditions: polyP6, Mg2+, pH 7.5, 35 °C
T5 construct: gene K649_10090
T5 sequence (M9XB82 1-267): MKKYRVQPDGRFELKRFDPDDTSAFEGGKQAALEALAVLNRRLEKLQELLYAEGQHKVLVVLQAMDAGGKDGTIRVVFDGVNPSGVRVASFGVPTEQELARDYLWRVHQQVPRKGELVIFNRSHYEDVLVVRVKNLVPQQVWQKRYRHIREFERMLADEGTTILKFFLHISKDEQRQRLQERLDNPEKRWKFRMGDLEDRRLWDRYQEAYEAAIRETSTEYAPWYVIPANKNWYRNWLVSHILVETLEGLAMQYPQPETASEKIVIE

[6] = target: T6, PPK2^r.p (Ruegeria pomeroyi, UniProt Q5LX16); assay: polyphosphate kinase assay, HPLC; conditions: polyP6, Mg2+, pH 7.5, 35 °C
T6 construct: gene SPO0224
T6 sequence (Q5LX16 1-305): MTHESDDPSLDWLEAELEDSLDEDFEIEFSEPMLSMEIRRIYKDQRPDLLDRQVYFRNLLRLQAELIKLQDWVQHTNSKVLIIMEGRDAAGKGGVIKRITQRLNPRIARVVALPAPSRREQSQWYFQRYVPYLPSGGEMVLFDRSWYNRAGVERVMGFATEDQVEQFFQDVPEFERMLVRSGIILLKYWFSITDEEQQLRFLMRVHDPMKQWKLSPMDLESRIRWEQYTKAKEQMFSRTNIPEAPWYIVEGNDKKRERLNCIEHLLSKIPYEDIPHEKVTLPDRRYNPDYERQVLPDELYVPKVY

[7] = test system: T7, chondroitin 4-O-sulfotransferase (C4ST); assay: sulfotransferase kinetics, HPLC-MS; conditions: Mg2+, pH 7.5, 35 °C (general assay); acceptor not given
T7 construct: gene Chst11; recombinant
Source text: sulfotransferase kinetics, HPLC-MS on chondroitin 4-O-sulfotransferase (C4ST)

Row | Structure (SMILES) | polyphosphate kinase assay, HPLC [1] | polyphosphate kinase assay, HPLC [2] | polyphosphate kinase assay, HPLC [3] | polyphosphate kinase assay, HPLC [4] | polyphosphate kinase assay, HPLC [5] | polyphosphate kinase assay, HPLC [6] | Km [7]
1 | Nc1ncnc2c1ncn2[C@@H]1O[C@H](COP(=O)(O)O)[C@@H](O)[C@H]1O [AMP] | PPK2^s.e (from S. epidermidis) showed the highest enzymatic activity and preferentially utilized AMP | all the other polyphosphate kinases exhibited both AMP and ADP phosphorylase activities | all the other polyphosphate kinases exhibited both AMP and ADP phosphorylase activities | all the other polyphosphate kinases exhibited both AMP and ADP phosphorylase activities | all the other polyphosphate kinases exhibited both AMP and ADP phosphorylase activities | all the other polyphosphate kinases exhibited both AMP and ADP phosphorylase activities | 
2 | Nc1ncnc2c1ncn2[C@@H]1O[C@H](COP(=O)(O)OS(=O)(=O)O)[C@@H](OP(=O)(O)O)[C@H]1O [PAPS] |  |  |  |  |  |  | 1270 ± 140 µM
3 | Nc1ncnc2c1ncn2[C@@H]1O[C@H](COP(=O)(O)OP(=O)(O)O)[C@@H](O)[C@H]1O [ADP] | all the other polyphosphate kinases exhibited both AMP and ADP phosphorylase activities |  |  |  |  |  | 
